In assay [1] the target is T1, CYCLIN K (nuclear staining in CAL-120 cells) (Homo sapiens, UniProt O75909).
T1 construct: endogenous in cells; host or cells: CAL-120 human breast cancer cells (DSMZ ACC 459)
Description: CYCLIN K nuclear protein level: immunofluorescence high content analysis (CAL-120). The settings on record: 24 h, 50% reduction of nuclear CCNK staining intensity, median, read-out: CYCLIN K degradation IF, DC50-[mol/l] (median). It counts as cell-based. Summed up:
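Readout is automated confocal image analysis of nuclear cyclin K immunofluorescence (Hoechst nuclei) after PFA fixation. Cells were CAL-120, exposed to compound dose-response 24 h at 37 °C; values are DC50 for halving nuclear CCNK signal relative to DMSO and control wells.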

Assay [2] relates to CAL-120, human breast adenocarcinoma cells. Nature of the assay: Proliferation assay CAL-120 (crystal violet, 4 days). Type of assay: cell-based. The settings on record: Homo sapiens, CAL-120, 96 h, CAL-120 cells, median, read-out: Prolif-CAL-120, IC50-[mol/l] (median). Summed up: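 Growth was measured by crystal violet staining after cells had been treated with compounds (0.01-10 µmol/L, 0.1% DMSO) for 4 days, beginning 24 h after seeding. Values were normalized to a zero-point plate and to untreated controls, and IC50 values were derived by a four-parameter fit.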

The subject of assay [3] is BRCA1 mRNA expression in MDA-MB-231 cells. Nature of the assay: qRT-PCR assay: BRCA1 mRNA expression in MDA-MB-231. The settings on record: Homo sapiens, MDA-MB-231, Inhibition of BRCA1 mRNA expression in MDA-MB-231 cells; median; read-out: RTqPCR-MDA-MB-231, IC50, BRCA1 (median). It counts as cell-based, human. Summed up: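 First, cells are plated at 200,000 per well and allowed 24 h. Second, test substances are applied continuously for a further 24 h. Finally, RNA is isolated, 600 ng is converted to cDNA, and qPCR quantifies the transcript relative to GAPDH.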

Assay [4] has as its target T2, CDK12 (nuclear staining in CAL-120 cells) (Homo sapiens, UniProt Q9NYV4).
T2 construct: endogenous in cells; host or cells: CAL-120 human breast cancer cells (DSMZ ACC 459)
Description: CDK12 nuclear protein level: immunofluorescence/high content analysis (CAL-120). Type of assay: cell-based. The settings on record: for DC50: CAL-120 cells, 24 h, immunofluorescence, 50% reduction of nuclear CDK12 staining intensity, median, read-out: CDK12 degradation IF, DC50- [mol/l] (median); for (IC50 CDK12 high ATP) to (Degradation DC50 CDK12) ratio: ratio of IC50 CDK12 high ATP kinase assay to DC50 CDK12 degradation (IF, CAL-120). Summed up:
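DC50 is the degrader concentration that halves nuclear CDK12 immunofluorescence relative to controls, measured by high-content imaging. CAL-120 cells were exposed to compound for 24 h at 37 °C before PFA fixation, and signal was normalized to DMSO and control wells.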

T2 sequence (Q9NYV4 whole entry): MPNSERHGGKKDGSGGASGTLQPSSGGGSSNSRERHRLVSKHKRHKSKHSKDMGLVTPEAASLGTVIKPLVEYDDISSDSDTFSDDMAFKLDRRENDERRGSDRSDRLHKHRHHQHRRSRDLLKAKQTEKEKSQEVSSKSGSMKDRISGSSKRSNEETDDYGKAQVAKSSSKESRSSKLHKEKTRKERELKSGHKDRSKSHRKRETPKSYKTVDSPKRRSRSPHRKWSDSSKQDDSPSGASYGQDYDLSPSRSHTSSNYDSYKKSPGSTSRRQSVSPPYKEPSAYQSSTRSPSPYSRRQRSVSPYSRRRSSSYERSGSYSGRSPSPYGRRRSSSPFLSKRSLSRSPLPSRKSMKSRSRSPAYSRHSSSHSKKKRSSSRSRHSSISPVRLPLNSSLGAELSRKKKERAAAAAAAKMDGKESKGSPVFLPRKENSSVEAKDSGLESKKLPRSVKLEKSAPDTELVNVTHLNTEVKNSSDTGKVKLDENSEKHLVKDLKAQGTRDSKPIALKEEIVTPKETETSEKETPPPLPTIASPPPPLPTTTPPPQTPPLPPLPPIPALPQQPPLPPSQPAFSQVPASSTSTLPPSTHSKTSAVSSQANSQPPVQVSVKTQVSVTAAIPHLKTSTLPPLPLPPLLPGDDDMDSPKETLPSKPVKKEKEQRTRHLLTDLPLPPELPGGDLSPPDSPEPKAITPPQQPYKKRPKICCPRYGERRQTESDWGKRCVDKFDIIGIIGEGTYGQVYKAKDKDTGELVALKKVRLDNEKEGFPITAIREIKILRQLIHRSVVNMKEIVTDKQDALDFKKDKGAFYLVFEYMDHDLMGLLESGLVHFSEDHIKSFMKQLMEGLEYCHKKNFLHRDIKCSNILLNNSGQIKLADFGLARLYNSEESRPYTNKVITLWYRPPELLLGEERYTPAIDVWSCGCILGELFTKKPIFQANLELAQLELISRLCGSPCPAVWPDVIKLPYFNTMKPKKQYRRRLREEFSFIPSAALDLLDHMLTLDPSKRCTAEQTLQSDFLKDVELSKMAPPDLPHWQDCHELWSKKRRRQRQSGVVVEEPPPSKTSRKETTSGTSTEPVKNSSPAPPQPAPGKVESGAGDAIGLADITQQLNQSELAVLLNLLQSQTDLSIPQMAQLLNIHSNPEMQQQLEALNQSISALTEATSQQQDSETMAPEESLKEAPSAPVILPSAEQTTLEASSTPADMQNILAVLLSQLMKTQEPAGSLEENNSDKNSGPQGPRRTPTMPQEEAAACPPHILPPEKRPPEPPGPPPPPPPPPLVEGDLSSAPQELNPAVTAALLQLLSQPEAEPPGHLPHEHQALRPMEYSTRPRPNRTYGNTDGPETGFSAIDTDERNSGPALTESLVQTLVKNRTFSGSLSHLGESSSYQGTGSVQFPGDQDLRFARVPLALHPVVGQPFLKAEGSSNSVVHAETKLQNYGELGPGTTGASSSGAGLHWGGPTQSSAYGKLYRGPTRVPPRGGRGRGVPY
T2 sequence (O75909 whole entry partner): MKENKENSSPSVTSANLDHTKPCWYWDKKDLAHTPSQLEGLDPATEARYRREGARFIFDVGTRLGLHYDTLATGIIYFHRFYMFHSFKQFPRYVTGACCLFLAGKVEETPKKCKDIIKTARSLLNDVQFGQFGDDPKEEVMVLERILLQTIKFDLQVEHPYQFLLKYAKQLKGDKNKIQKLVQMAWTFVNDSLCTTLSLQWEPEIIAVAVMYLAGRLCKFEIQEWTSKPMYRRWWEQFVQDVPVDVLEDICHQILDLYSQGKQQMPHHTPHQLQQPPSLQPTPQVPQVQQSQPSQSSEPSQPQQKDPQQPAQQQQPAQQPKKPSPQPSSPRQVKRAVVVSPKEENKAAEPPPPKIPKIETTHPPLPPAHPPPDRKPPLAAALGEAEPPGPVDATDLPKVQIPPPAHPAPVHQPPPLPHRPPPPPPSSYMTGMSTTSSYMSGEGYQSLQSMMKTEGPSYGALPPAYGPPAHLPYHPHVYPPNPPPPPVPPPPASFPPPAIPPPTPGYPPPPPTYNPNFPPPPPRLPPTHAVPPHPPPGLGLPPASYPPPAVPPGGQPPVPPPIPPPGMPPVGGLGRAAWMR
T1 sequence (O75909 whole entry): as the sequence (O75909 whole entry partner) above
T1 sequence (Q9NYV4 whole entry partner): as the sequence (Q9NYV4 whole entry) above

Take `Cc1ccc(-c2nnc(CNc3nc(N4CCOCC4)nc4c(Br)cnn34)[nH]2)cc1F` [Example 98, 8-bromo-N-{[5-(3-fluoro-4-methylphenyl)-4H-1,2,4-triazol-3-yl]methyl}-2-(morpholin-4-yl)pyrazolo[1,5-a][1,3,5]triazin-4-amine]: the DC50 stood at 28.1 nM in assay [1] and 38.5 nM in assay [4]. For the same molecule, the values for the IC50 in assay [2] and in assay [3] were 116 nM and 78.8 nM, respectively. In addition, the “(IC50 CDK12 high ATP) to (Degradation DC50 CDK12) ratio” value in assay [4] is recorded as 28.

Consider `Cc1ccc2[nH]c(CNc3nc(N4CCN(C)CC4)nc4c(Br)cnn34)nc2c1` [Example 158, 8-bromo-N-[(5-methyl-1H-benzimidazol-2-yl)methyl]-2-(4-methylpiperazin-1-yl)pyrazolo[1,5-a][1,3,5]triazin-4-amine], for which the DC50 was determined as 0.367 nM in assay [1] and 0.536 nM in assay [4]. Also, the figures for the IC50 in assay [2] and in assay [3] were 1.17 nM and 0.883 nM, respectively. The “(IC50 CDK12 high ATP) to (Degradation DC50 CDK12) ratio” value in assay [4] was found to be 8313.

As to `Brc1cnn2c(NCc3nnc(-c4ccccc4)[nH]3)nc(N3C[C@@H]4C[C@H]3CO4)nc12` [Example 120, 8-bromo-2-[(1S,4S)-2-oxa-5-azabicyclo[2.2.1]heptan-5-yl]-N-[(5-phenyl-4H-1,2,4-triazol-3-yl)methyl]pyrazolo[1,5-a][1,3,5]triazin-4-amine], the DC50 in assay [1] turned out to be 2.19 nM; in assay [4] it was 5.08 nM. Moreover, the IC50 in assay [2] stood at 25.4 nM; in assay [3], 30 nM. Also, the “(IC50 CDK12 high ATP) to (Degradation DC50 CDK12) ratio” value in assay [4] is reported as 2588.

For the molecule `CN1CCN(c2nc(NCc3nc4c(F)c(F)ccc4[nH]3)n3ncc(Br)c3n2)CC1` [Example 133, 8-bromo-N-[(4,5-difluoro-1H-benzimidazol-2-yl)methyl]-2-(4-methylpiperazin-1-yl)pyrazolo[1,5-a][1,3,5]triazin-4-amine], the DC50 in assay [1] stood at 0.0633 nM; in assay [4], 0.846 nM. Moreover, the results for the IC50 in assay [2] and in assay [3] were 4.41 nM and 4.23 nM, respectively. Moreover, the “(IC50 CDK12 high ATP) to (Degradation DC50 CDK12) ratio” value in assay [4] is recorded as 8279.

For the molecule `C[C@H]1CN(c2nc(NCc3nnc(-c4cccc(F)c4)[nH]3)n3ncc(Br)c3n2)CCN1C` [Example 154, 8-bromo-2-[(3S)-3,4-dimethylpiperazin-1-yl]-N-{[5-(3-fluorophenyl)-4H-1,2,4-triazol-3-yl]methyl}pyrazolo[1,5-a][1,3,5]triazin-4-amine], the DC50 in assay [1] worked out at 0.713 nM; in assay [4] it was 5.27 nM. For the same molecule, the IC50 in assay [2] was 7.69 nM; in assay [3], 7.04 nM. The “(IC50 CDK12 high ATP) to (Degradation DC50 CDK12) ratio” value in assay [4] came to 1360.

These data come from US20230117034A1, “PYRAZOLOTRIAZINES” (Bayer Aktiengesellschaft, priority 2019, published 2023).
